Measured values published in patent US11274332B2, “Methods of administering 3,4-diaminopyridine” (SERB SA, priority 2011, dated 2022).

System: dog hepatocytes
Test: In vitro metabolism of 14C-amifampridine in dog hepatocytes (Example 2)
Format: in vitro ADME
Protocol: The objective of this hepatocyte study was to determine the extent of metabolism, complete metabolic profile and metabolite characterization of amifampridine phosphate in several species with ^14C-amifampridine phosphate for a cross species comparison. The following procedures were used to study the metabolism in rat (Example 1), dog (Example 2), and human hepatocytes (Example 3).
The cryopreserved hepatocytes were removed from storage, quickly thawed in a 37° C. water bath for 1 to 2 min, and transferred to a 50 ml tube containing pre-warmed InVitroGRO HT medium (Celsis Inc., Baltimore). The cell suspension was mixed by gentle inversion and the cells were pelleted by centrifugation at 50 to 75×g for 5 min. The supernatant medium was removed and the cells were resuspended in Williams' Medium E. Hepatocyte viability was assessed by using trypan blue exclusion. Hepatocyte density was determined by counting cells with a hemocytometer and the density was adjusted with Williams' Medium E to achieve a final density of 1,000,000 cells/mL. […] The supernatant medium was removed and the cells were resuspended in cold Williams' Medium E. The cell density was then determined using a hemocytometer and the density was adjusted with Williams' Medium E to achieve a final density of 1,000,000 cells/mL. […]

Nc1ccncc1N [3,4-DAP, 3,4-diaminopyridine]
conversion of 3,4-DAP to its metabolite: No conversion
